Among the data in publication PMC11932996, “aac(6’)-Iaq, a novel aminoglycoside acetyltransferase gene identified from an animal isolate Brucella intermedia DW0551” (Frontiers in Cellular and Infection Microbiology, 2025) are Km values, retold here.

This experiment has as its system AAC(6’)-Iaq. The experiment is classed as biochemical, Brucella intermedia.

As to `NCC[C@H](O)C(=O)N[C@@H]1C[C@H](N)[C@@H](O[C@H]2O[C@H](CN)[C@@H](O)[C@H](O)[C@H]2O)[C@H](O)[C@H]1O[C@H]1O[C@H](CO)[C@@H](O)[C@H](N)[C@H]1O` [amikacin], the Km (as a rule, the concentration of substrate that gives half-maximal velocity) was 14.1 ± 0.76 µM. With `NC[C@H]1O[C@H](O[C@H]2[C@H](O)[C@@H](O[C@H]3O[C@H](CO)[C@@H](O)[C@H](N)[C@H]3O)[C@H](N)C[C@@H]2N)[C@H](O)[C@@H](O)[C@@H]1O` [kanamycin] the figure was 13.3 ± 9.07 µM; with `CCN[C@@H]1C[C@H](N)[C@@H](O[C@H]2OC(CN)=CC[C@H]2N)[C@H](O)[C@H]1O[C@H]1OC[C@](C)(O)[C@H](NC)[C@H]1O` [netilmicin], 3.83 ± 0.34 µM. With `NC[C@H]1O[C@H](O[C@H]2[C@H](O[C@@H]3O[C@H](CO)[C@@H](O)[C@H]3O)[C@@H](O)[C@H](N)C[C@@H]2N)[C@H](N)[C@@H](O)[C@@H]1O` [ribostamycin] the figure was 10.1 ± 2.45 µM; with `CN[C@@H]1[C@@H](O)[C@@H](O[C@@H]2[C@@H](O)[C@H](O[C@H]3OC(CN)=CC[C@H]3N)[C@@H](N)C[C@H]2N)OC[C@]1(C)O` [sisomicin], 4.33 ± 1.32 µM.
